According to PubChem BioAssay (NCI):
Values joined by “and” are separate entries in the source; they are usually repeats but may differ in a detail not shown here. Equal values may be shown once.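 Step 1: Grow cells in 96-well plates. Step 2: Expose to compound for 48 hours at 5 concentrations. Step 3: Interpolate endpoints linearly; if unreached, use highest concentration. GI50: concentration for 50% inhibition of growth. TGI: total growth inhibition.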

Legend:
Assay in all cases: DTP human tumour cell line panel, 48 h
[1] = tested on: CCRF-CEM leukemia
[2] = tested on: RXF 393 renal
[3] = tested on: TK-10 renal
[4] = tested on: SK-OV-3 ovarian
[5] = tested on: HCT-116 colon
[6] = tested on: SK-MEL-5 melanoma
[7] = tested on: SF-295 CNS
[8] = tested on: RPMI-8226 leukemia
[9] = tested on: OVCAR-5 ovarian
[10] = tested on: NCI/ADR-RES ovarian

For `Nc1cc2[nH]cnc2c(=O)[nH]1`, the TGI [1] was over 300 µM, the TGI [2] was over 300 µM and the TGI [3] was over 300 µM. For the same compound, the TGI [4] was over 188 µM, the TGI [5] was over 300 µM and the TGI [6] was over 290 µM. For the same compound, the TGI [7] was over 300 µM, the TGI [8] was over 300 µM and the TGI [9] was over 289 µM. It also gave a TGI [10] of over 300 µM.

Compound `CCCCCCNC(=O)Oc1ccc(/C(=C(/C)Cc2ccc(OC)cc2)c2ccc(OCCN(C)C)cc2)cc1` has a GI50 [1] of 1.35 µM, a TGI [1] of 5.37 µM and a GI50 [2] of 4.36 µM. For the same compound, the TGI [2] was 9.23 µM, the GI50 [3] was 4.52 µM and the TGI [3] was 9.02 µM. It also gave a GI50 [4] of 4.99 µM, a TGI [4] of 9.5 µM and a GI50 [5] of 5.52 µM. It also gave a TGI [5] of 10.3 µM, a GI50 [6] of 5.46 µM and a TGI [6] of 10.2 µM. The GI50 [7] was 5.2 µM, the TGI [7] was 9.82 µM and the GI50 [8] was 0.983 µM. For the same compound, the TGI [8] was 2.7 µM, the GI50 [9] was 4.58 µM and the TGI [9] was 8.99 µM. The GI50 [10] was 5.07 µM and the TGI [10] was 10.7 µM.

In the case of `COC(=O)c1ccc(CN2C(=O)C(Cl)=C(Nc3ccc(OC)c(Cl)c3)C2=O)cc1`, the GI50 [1] is reported as over 50 µM, the TGI [1] is reported as over 50 µM and the GI50 [2] is reported as 11.2 µM. For the same compound, the TGI [2] was 26.1 µM, the GI50 [3] was over 50 µM and the TGI [3] was over 50 µM. It also gave a GI50 [4] of 33.9 µM, a TGI [4] of over 50 µM and a GI50 [5] of 13.3 µM. For the same compound, the TGI [5] was over 50 µM, the GI50 [6] was 31.6 µM and the TGI [6] was over 50 µM. The GI50 [7] was 20.4 µM, the TGI [7] was over 50 µM and the GI50 [8] was over 50 µM. The TGI [8] was over 50 µM, the GI50 [9] was 17.8 µM and the TGI [9] was 44.1 µM. For the same compound, the GI50 [10] was 12.7 µM and the TGI [10] was 30.9 µM.

For `COC(=O)[C@]1(C)CCC[C@@]2(C)[C@@H]3C[C@@H]4[C@H]5C[C@@]3(CC[C@@H]21)C[C@@]45C`, the TGI [1] was 45.7 µM, the TGI [2] was 38.2 µM and the TGI [3] was 28.3 µM. The TGI [4] was 27.8 µM, the TGI [5] was 45.2 µM and the TGI [6] was 34.3 µM. It also gave a TGI [7] of 28.5 µM, a TGI [8] of 27.7 µM and a TGI [9] of 34.2 µM. For the same compound, the TGI [10] was 32.1 µM.

`CCOC(=O)Nc1nc2cc(OCC)ccc2s1` showed a GI50 [1] of over 100 µM, a TGI [1] of over 100 µM and a GI50 [2] of over 100 µM. The TGI [2] was over 100 µM, the GI50 [3] was over 72.9 µM and the TGI [3] was over 100 µM. The GI50 [4] was over 100 µM, the TGI [4] was over 100 µM and the GI50 [5] was 6.82 µM. It also gave a TGI [5] of over 100 µM, a GI50 [6] of 8.44 µM and a TGI [6] of over 100 µM. For the same compound, the GI50 [7] was over 100 µM, the TGI [7] was over 100 µM and the GI50 [8] was over 65.8 µM. The TGI [8] was over 100 µM, the GI50 [9] was over 100 µM and the TGI [9] was over 100 µM. The GI50 [10] was 6.02 µM and the TGI [10] was over 100 µM.

Compound `CC(=O)c1cc(-c2ccccc2N)n(-c2ccc3c(c2)OCO3)c1C` has a GI50 [1] of 0.336 µM, a TGI [1] of over 100 µM and a GI50 [2] of 0.208 µM. The TGI [2] was 0.681 µM, the GI50 [3] was 0.623 µM and the TGI [3] was over 100 µM. It also gave a GI50 [4] of 0.292 µM, a TGI [4] of 45.3 µM and a GI50 [5] of 0.257 µM. The TGI [5] was 15.9 µM, the GI50 [6] was 0.196 µM and the TGI [6] was 1.59 µM. It also gave a GI50 [7] of 0.295 µM, a TGI [7] of 45.7 µM and a GI50 [8] of 0.351 µM. For the same compound, the TGI [8] was 19.3 µM, the GI50 [9] was 0.268 µM and the TGI [9] was over 100 µM. The GI50 [10] was 0.211 µM.

In the case of `COc1cc2c(c(OC)c1OC)-c1ccc(O)c(=O)cc1[C@@H](NC(C)=O)CC2`, the GI50 [1] is reported as 3.67 µM, the TGI [1] is reported as over 100 µM and the GI50 [2] is reported as 14.6 µM. For the same compound, the TGI [2] was over 100 µM, the TGI [3] was over 100 µM and the GI50 [4] was 11 µM. For the same compound, the TGI [4] was over 100 µM, the GI50 [5] was 4.23 µM and the TGI [5] was over 100 µM. For the same compound, the TGI [6] was 32.2 µM and 20.5 µM, the GI50 [7] was 5.45 µM and the TGI [7] was > 100 µM and 97.3 µM. The GI50 [8] was 8.15 µM, the TGI [8] was > 100 µM and 36.9 µM and the GI50 [9] was 22.7 µM. The TGI [9] was over 100 µM, the GI50 [10] was 4.6 µM and the TGI [10] was > 100 µM and 36.2 µM.
